The target in the test is T1, CARM1 (Homo sapiens, UniProt Q86X55).
T1 construct: Flag-CARM1-His; made in house; host or cells: HEK 293F cells infected with recombinant baculovirus (pFastBacMam)
T1 sequence (Q86X55 1-585 isoform Q86X55-1): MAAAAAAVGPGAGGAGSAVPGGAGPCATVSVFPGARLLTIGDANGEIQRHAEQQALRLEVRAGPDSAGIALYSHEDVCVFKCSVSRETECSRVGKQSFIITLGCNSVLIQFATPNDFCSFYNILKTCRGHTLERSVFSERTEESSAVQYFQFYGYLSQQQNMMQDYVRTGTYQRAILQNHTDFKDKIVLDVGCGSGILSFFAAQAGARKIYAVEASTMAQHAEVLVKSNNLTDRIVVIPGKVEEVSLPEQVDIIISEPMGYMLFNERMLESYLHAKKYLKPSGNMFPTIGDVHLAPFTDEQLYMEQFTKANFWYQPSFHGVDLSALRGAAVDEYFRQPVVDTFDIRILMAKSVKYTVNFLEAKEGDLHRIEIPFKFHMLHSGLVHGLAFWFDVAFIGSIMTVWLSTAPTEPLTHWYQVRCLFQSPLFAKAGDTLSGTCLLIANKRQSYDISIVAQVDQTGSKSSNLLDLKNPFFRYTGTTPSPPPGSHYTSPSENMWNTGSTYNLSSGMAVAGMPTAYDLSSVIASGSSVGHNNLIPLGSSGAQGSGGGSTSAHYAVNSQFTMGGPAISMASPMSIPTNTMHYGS
The experiment in a line: CARM1 enzyme assay on peptide substrate (3H-SAM Flashplate). The test is classed as biochemical. Conditions: CARM1 0.25 nM, 3H-SAM 30 nM, peptide 250 nM, 30 min preincubation; read-out: Biochem IC50. From the text: S-adenosylmethionine (SAM), S-adenosylhomocysteine (SAH), bicine, Tween20, dimethylsulfoxide (DMSO), bovine skin gelatin (BSG), sodium butyrate and Tris(2-carboxyethyl)phosphine hydrochloride solution (TCEP) were purchased from Sigma-Aldrich at the highest level of purity possible. ^3H-SAM was purchase from American Radiolabeled Chemicals with a specific activity of 80 Ci/mmol. 384-well streptavidin Flashplates were purchased from PerkinElmer.
Peptide representative of human histone H3 residues 16-30 was synthesized with an N-terminal linker-affinity tag motif and a C-terminal amide cap by 21^St Century Biochemicals. The peptide was purified by high-performance liquid chromatography (HPLC) to greater than 95% purity and confirmed by liquid chromatography mass spectrometry (LC-MS). The sequence was Biot-Ahx-[…]-amide and contained a monomethylated arginine at position 26 (SEQ ID NO.:1).
Human CARM1 (PRMT4) (NM_199141.1) transcript clone was amplified from an HEK 293 cDNA library, incorporating a flanking 5′ sequence encoding a FLAG tag ([…]) (SEQ ID NO.:2) fused directly to Ala 2 of CARM1 and 3′ sequence encoding a hexa His sequence ([…]) (SEQ ID NO.:3) fused directly to Ser 608. The gene sequence encoding isoform1 containing a deletion of amino acids 539-561 was amplified subsequently and subcloned into pFastBacMam (Viva Biotech). Protein Expression
Recombinant baculovirus were generated according to Bac-to-Bac kit instructions (Life Technologies). Protein over-expression was accomplished by infecting exponentially growing HEK 293F cell culture at 1.3×10^6 cell/ml with virus (MOI=10) in the presence of 8 mM sodium butyrate. Infections were carried out at 37° C. for 48 hours, harvested by centrifugation, and stored at −80° C. for purification.
Column was washed with 500 mM NaCl in buffer A and Flag-CARM1-His was eluted with 200 ug/ml FLAG peptide in buffer A. Pooled fractions were dialyzed in 20 mM Tris, 150 mM NaCl, 5% glycerol and 1 mM DTT, pH 7.8. The purity of recovered protein was 94.
General Procedure for CARM1 Enzyme Assays on Peptide Substrates
The assays were all performed in a buffer consisting of 20 mM Bicine (pH=7.6), 1 mM TCEP, 0.005% BSG, and 0.002% Tween 20, prepared on the day of use. Compounds in 100% DMSO (1 ul) were spotted into a polypropylene 384-well V-bottom plates (Greiner) using a Platemate Plus outfitted with a 384-channel head (Thermo Scientific). DMSO (1 ul) was added to Columns 11, 12, 23, 24, rows A-H for the maximum signal control and 1 ul of SAH, a known product and inhibitor of CARM1, was added to columns 11, 12, 23, 24, rows I-P for the minimum signal control. A cocktail (40 ul) containing the CARM1 enzyme was added by Multidrop Combi (Thermo-Fisher). The compounds were allowed to incubate with CARM1 for 30 min at room temperature, then a cocktail (10 ul) containing ^3H-SAM and peptide was added to initiate the reaction (final volume=51 ul). The final concentrations of the components were as follows: CARM1 was 0.25 nM, ^3H-SAM was 30 nM, peptide was 250 nM, SAH in the minimum signal control wells was 1 mM, and the DMSO concentration was 2%. The assays were stopped by the addition of non-radiolabeled SAM (10 ul) to a final concentration of 300 uM, which dilutes the ^3H-SAM to a level where its incorporation into the peptide substrate is no longer detectable. 50 ul of the reaction in the 384-well polypropylene plate was then transferred to a 384-well Flashplate and the biotinylated peptides were allowed to bind to the streptavidin surface for at least 1 hour before being washed once with 0.1% Tween20 in a Biotek ELx405 plate washer. The plates were then read in a PerkinElmer TopCount plate reader to measure the quantity of ^3H-labeled peptide bound to the Flashplate surface, measured as disintegrations per minute (dpm) or alternatively, referred to as counts per minute (cpm). […]

Each structure is given as a SMILES string. pIC50: −log10 of the molar value.

The values below come from patent US9718816B2, “1-phenoxy-3-(alkylamino)-propan-2-ol derivatives as CARM1 inhibitors and uses thereof” (Epizyme, Inc., priority 2013, dated 2017).

The pIC50 is the negative decadic logarithm of the IC50, by convention in mol/L. Turning to `CNCC(O)COc1cccc(-c2cc(NCCN)c3cnn(C(C)C)c3n2)c1` (stereo not shown) [Example 9-1], the negative logarithm of the IC50 (pIC50) was 6.00 to 7.00.
For `CNCC(O)COc1cccc(-c2cc(N[C@H]3CO[C@@H]4OCC[C@@H]43)c3cnn(C(C)C)c3n2)c1` (stereo partly shown) [Example 47-1], the negative logarithm of the IC50 (pIC50) was 6.00 to 7.00.
Under `CNCC(O)COc1cccc(-c2cc(NCc3ccccn3)c3cnn(C(C)C)c3n2)c1` (stereo not shown) [Example 34-1] stands 6.00 to 7.00; under `CC(C)n1ncc2c(N3CCOCC3)cc(-c3cccc(OC[C@@H](O)CN)c3)nc21` [Example 12-1], 6.00 to 7.00.
The value for `CNCC(O)COc1cccc(-c2cc(NCCCCN)c3cnn(C(C)C)c3n2)c1` (stereo not shown) [Example 22-1] was over 7.00.
The value for `CC(C)n1ncc2c(NCc3cnc4ccccn34)cc(-c3cccc(OCC(O)CN)c3)nc21` (stereo not shown) [Example 50-1] was over 7.00.
For the compound `CCOC(=O)Nc1cc(-c2cccc(OCC(O)CN)c2)nc2c1cnn2C(C)C` (stereo not shown) [Example 17-1], the pIC50 is 6.00 to 7.00.
Under `CNCC(O)COc1cccc(-c2cc(NCC(=O)OC)c3cnn(C(C)C)c3n2)c1` (stereo not shown) [Example 23-1] stands 6.00 to 7.00; under `CNCC(O)COc1cccc(-c2cc(NC3CCOCC3)c3cnn(C(C)C)c3n2)c1` (stereo not shown) [Example 29-1], 5.00 to 5.52.
The value for `CNCC(O)COc1cccc(-c2cc(NCCCCCCNC(=O)c3ccn(C)n3)c3cnn(C(C)C)c3n2)c1` (stereo not shown) [Example 66-1] was 6.00 to 7.00.
The value for `CNCC(O)COc1cccc(-c2cc(NCCCCCN)c3cnn(C(C)C)c3n2)c1` (stereo not shown) [Example 32-1] was over 7.00.
Turning to `CC(C)n1ncc2c(N(C)CC3CCOCC3)cc(-c3cccc(OCC(O)CN)c3)nc21` (stereo not shown) [Example 42-1], the pIC50 was over 7.00.
Regarding `CNCC(O)COc1cccc(-c2cc(NCCNC(=O)c3cccnc3)c3cnn(C(C)C)c3n2)c1` (stereo not shown) [Example 56-1], the negative logarithm of the IC50 (pIC50) was 6.00 to 7.00.
On to `CC(C)n1ncc2c(NS(=O)(=O)N(C)C)cc(-c3cccc(OCC(O)CN)c3)nc21` (stereo not shown) [Example 36-1], for which the negative logarithm of the IC50 (pIC50) is over 7.00.
Turning to `Cc1c(CNc2cc(-c3cccc(OCC(O)CN)c3)nc3c2cnn3C(C)C)cnn1C` (stereo not shown) [Example 37-1], the negative logarithm of the IC50 (pIC50) was 5.00 to 5.52.
The value for `CCNCC(O)COc1cccc(-c2cc(N3CCOCC3)c3cnn(C(C)C)c3n2)c1` (stereo not shown) [Example 31-1] was over 7.00.
For `CC(C)n1ncc2c(NC(=O)N(C)C)cc(-c3cccc(OCC(O)CN)c3)nc21` (stereo not shown) [Example 14-1], the pIC50 was 6.00 to 7.00.
The value for `CNCC(O)COc1cccc(-c2cc(NCCCN)c3cnn(C(C)C)c3n2)c1` (stereo not shown) [Example 15-1] was 6.00 to 7.00; that for `CNCC(O)COc1cccc(-c2cc(N)c3cnn(C(C)C)c3n2)c1` (stereo not shown) [Example 4-1] was 5.52 to 6.00.
With `CNCC(O)COc1cccc(-c2cc(NCCCCCCN)c3cnn(C(C)C)c3n2)c1` (stereo not shown) [Example 43-1], the negative-log IC50 (pIC50) was 6.00 to 7.00.
The value for `CNCC(O)COc1cccc(-c2cc(NCCNC(=O)c3ccn(C)n3)c3cnn(C(C)C)c3n2)c1` (stereo not shown) [Example 58-1] was 6.00 to 7.00.
The value for `CNCC(O)COc1cccc(-c2cc(NC3CC3)c3cnn(C(C)C)c3n2)c1` (stereo not shown) [Example 7-1] was 6.00 to 7.00; that for `CNCC(O)COc1cccc(-c2cc(NCC3CCOCC3)c3cnn(C(C)C)c3n2)c1` (stereo not shown) [Example 41-1] was over 7.00; that for `CNCC(O)COc1cccc(-c2cc(NCCCCCNC(=O)c3cccnc3)c3cnn(C(C)C)c3n2)c1` (stereo not shown) [Example 63-1] was 6.00 to 7.00.
The value for `CNCC(O)COc1cccc(-c2cc(NCCCCNC(=O)c3ccn(C)n3)c3cnn(C(C)C)c3n2)c1` (stereo not shown) [Example 62-1] was 6.00 to 7.00; that for `CNCC(O)COc1cccc(-c2cc(NCc3cnn(C)c3C)c3cnn(C(C)C)c3n2)c1` (stereo not shown) [Example 46-1] was over 7.00.
For the compound `CC(C)n1ncc2c(NCc3ccncc3)cc(-c3cccc(OCC(O)CN)c3)nc21` (stereo not shown) [Example 26-1], the pIC50 was over 7.00.
Take `CNCC(O)COc1cccc(-c2cc(NS(=O)(=O)N(C)C)c3cnn(C(C)C)c3n2)c1` (stereo not shown) [Example 45-1]: the negative logarithm of the IC50 (pIC50) was over 7.00.
As to `CNCC(O)COc1cccc(-c2cc(N3CCC(C(=O)OC)CC3)c3cnn(C(C)C)c3n2)c1` (stereo not shown) [Example 52-1], the pIC50 is over 7.00.
Under `CC(C)n1ncc2c(NC3CCOCC3)cc(-c3cccc(OCC(O)CN)c3)nc21` (stereo not shown) [Example 19-1] stands 6.00 to 7.00.
`CNCC(O)COc1cccc(-c2cc(N3CCOCC3)c3cnn(C(C)C)c3n2)c1` (stereo not shown) [Example 20-1]: the pIC50 is over 7.00.
Under `CNCC(O)COc1cccc(-c2cc(NCCCCCCNC(=O)c3cccnc3)c3cnn(C(C)C)c3n2)c1` (stereo not shown) [Example 65-1] stands 6.00 to 7.00; under `CNCC(O)COc1cccc(-c2cc(NCCCCCNC(=O)c3ccn(C)n3)c3cnn(C(C)C)c3n2)c1` (stereo not shown) [Example 64-1], over 7.00; under `CNCC(O)COc1cccc(-c2cc(NCc3nnn[nH]3)c3cnn(C(C)C)c3n2)c1` (stereo not shown) [Example 27-1], over 7.00.
Under `CC(C)n1ncc2c(N(C)C3CCOCC3)cc(-c3cccc(OCC(O)CN)c3)nc21` (stereo not shown) [Example 28-1] stands 6.00 to 7.00.
For `CNCC(O)COc1cccc(-c2cc(N(C)CC3CCOCC3)c3cnn(C(C)C)c3n2)c1` (stereo not shown) [Example 48-1], the pIC50 was over 7.00.
The value for `CNCC(O)COc1cccc(-c2cc(NC(=O)OCc3ccccc3)c3cnn(C(C)C)c3n2)c1` (stereo not shown) [Example 54-1] was 6.00 to 7.00.
In the case of `CNCC(O)COc1cccc(-c2cc(NC(=O)OC)c3cnn(C(C)C)c3n2)c1` (stereo not shown) [Example 16-1], the negative logarithm of the IC50 (pIC50) was 6.00 to 7.00.
Regarding `CC(C)n1ncc2c(NC3CC3)cc(-c3cccc(OCC(O)CN)c3)nc21` (stereo not shown) [Example 6-1], the pIC50 was 6.00 to 7.00.
The value for `COC(=O)CNc1cc(-c2cccc(OCC(O)CN)c2)nc2c1cnn2C(C)C` (stereo not shown) [Example 18-1] was 6.00 to 7.00; that for `CNCC(O)COc1cccc(-c2cc(NC(=O)N(C)C)c3cnn(C(C)C)c3n2)c1` (stereo not shown) [Example 21-1] was 6.00 to 7.00; that for `CC(C)n1ncc2c(N[C@H]3CO[C@@H]4OCC[C@@H]43)cc(-c3cccc(OCC(O)CN)c3)nc21` (stereo partly shown) [Example 38-1] was over 7.00.
With `CNCC(O)COc1cccc(-c2cc(NC(=O)NC3CCOCC3)c3cnn(C(C)C)c3n2)c1` (stereo not shown) [Example 2-1], the pIC50 was over 7.00.
`COc1nc(C)cc(C)c1CNc1cc(-c2cccc(OCC(O)CN)c2)nc2c1cnn2C(C)C` (stereo not shown) [Example 55-1]: the pIC50 is over 7.00.
Under `CC(C)n1ncc2c(N3CCOCC3)cc(-c3cccc(OCC(O)CN)c3)nc21` (stereo not shown) [Example 3-1] stands over 7.00; under `CNCC(O)COc1cccc(-c2cc(NC)c3cnn(C(C)C)c3n2)c1` (stereo not shown) [Example 5-1], 6.00 to 7.00.
